This note sets out measurements from patent US20250090437A1, “COSMETIC COMPOUNDING AGENT, COSMETIC AND PRODUCTION METHOD THEREOF” (MIYOSHI OIL & FAT CO., LTD., priority 2019, published 2025).

Structures are written as SMILES.

A short description of series [1]: Water retention property test 1. The settings on record: 80 wt % aqueous solution; for Water retention property test 1 Post-test moisture rate / Water retention property test 1 Rate of reduction in moisture: 24 hours at 40° C. and 25% RH. The format is physicochemical. The protocol: A moisture rate after 24 hours was again measured (post-test moisture rate: B), followed by using the formula below to calculate a rate of reduction in moisture so as to evaluate the water retention property. • Pre-test moisture rate: A (%) • Post-test moisture rate: B (%)

Series [2] in a line: Water retention property test 2 (hydrates). The format is physicochemical. The settings on record: hydrate (anhydrides: aqueous solution at mono- to trihydrate concentration); for Pre-test moisture rate: before the test; for Post-test moisture rate / Rate of reduction in moisture: unsealed, 24 hours at 40° C. and 25% RH. The protocol: (2) Water retention property test 2 The water retention property of the hydrate of each compound was evaluated. Hydrates were used in the cases of the compounds C1 to C38, C40 to C49 and C56 to C59; however, since the compounds C39 and C62 to C64 were anhydrides, there were used aqueous solutions prepared by adding water so that a concentration would be that of monohydrate to trihydrate. The moisture rate of the sample(s) was confirmed using a Karl Fischer moisture meter (pre-test moisture rate: A). Next, 1.0 g of each of these samples was added to a screw tube, and this screw tube, while remaining unsealed, was then left to stand still for 24 hours in a thermo-hygrostat set to 40° C. and 25% RH. A moisture rate after 24 hours was again measured (post-test moisture rate: B), followed by calculating a rate of reduction in moisture in a similar manner as above so as to evaluate the water retention property. Here, a comparative evaluation was performed on each hydrate of the compounds C1 to C38, C40 to C49 and C56 to C59 together with an aqueous solution(s) of the compound C39 having a concentration(s) corresponding to the numbers of these hydration waters.
(monohydrates in compounds C1 to C38, C40 to C49 and C56 to C59 of working examples C62 to C99, C103 to C116 with compound C39 of working example C100, compound C62 of comparative example C4, compound C63 of comparative example C7 and compound C64 of comparative example C10)
(dihydrates in compounds C1 to C38, C40 to C49 and C56 to C59 of working examples C62 to C99, C103 to C116 with compound C39 of working example C101, compound C62 of comparative example C5, compound C63 of comparative example C8 and compound C64 of comparative example C11)
(trihydrates in compounds C1 to C38, C40 to C49 and C56 to C59 of working examples C62 to C99, C103 to C116 with compound C39 of working example C102, compound C62 of comparative example C6, compound C63 of comparative example C9 and compound C64 of comparative example C12)

In the case of `CC(O)C(=O)O.NCCO` (stereo not drawn) [Compound C1], in series [1], the “Water retention property test 1 Pre-test moisture rate” value stood at 20.0%, the “Water retention property test 1 Post-test moisture rate” value came to 19.3% and the “Water retention property test 1 Rate of reduction in moisture” value is reported as 3.5%.

With `CC(O)C(=O)O.OCCNCCO` [Compound C2], in series [1], the “Water retention property test 1 Pre-test moisture rate” value is on record as 20.0%, the “Water retention property test 1 Post-test moisture rate” value was determined as 19.0% and the “Water retention property test 1 Rate of reduction in moisture” value worked out at 4.8%.

For the molecule `NC(CO)(CO)CO.O=C(O)CC(O)(CC(=O)O)C(=O)O` [Compound C21], in series [1], the “Water retention property test 1 Pre-test moisture rate” value stood at 20.0% 20.0%, the “Water retention property test 1 Post-test moisture rate” value came out at 19.0% and the “Water retention property test 1 Rate of reduction in moisture” value was determined as 5.1%.

On to `CS(=O)(=O)O.NC(CO)(CO)CO` [Compound C22], for which, in series [1], the “Water retention property test 1 Pre-test moisture rate” value stood at 20.0%, the “Water retention property test 1 Post-test moisture rate” value stood at 19.8% and the “Water retention property test 1 Rate of reduction in moisture” value amounted to 1.2%.

Take `CC(O)C(=O)O.N` (stereo not drawn) [Compound C24]: in series [1], the “Water retention property test 1 Pre-test moisture rate” value was 20.0%, the “Water retention property test 1 Post-test moisture rate” value was found to be 19.0% and the “Water retention property test 1 Rate of reduction in moisture” value is 4.9%.

In the case of `CC(O)C(=O)[O-].CCC(CO)(CO)[N+](CC(O)CO)(CC(O)CO)CC(O)CO` (stereo not drawn) [Compound C25], in series [1], the “Water retention property test 1 Pre-test moisture rate” value came out at 20.0%, the “Water retention property test 1 Post-test moisture rate” value amounted to 19.0% and the “Water retention property test 1 Rate of reduction in moisture” value is 5.0%.

On to `CC(O)C(=O)[O-].OCC[N+](CCO)(CCO)CCO` [Compound C26], for which, in series [1], the “Water retention property test 1 Pre-test moisture rate” value was determined as 20.0%, the “Water retention property test 1 Post-test moisture rate” value amounted to 19.0% and the “Water retention property test 1 Rate of reduction in moisture” value amounted to 5.0%.

With `CC(=O)[O-].C[N+](C)(C)CCO` [Compound C27], in series [1], the “Water retention property test 1 Pre-test moisture rate” value amounted to 20.0%, the “Water retention property test 1 Post-test moisture rate” value is recorded as 19.0% and the “Water retention property test 1 Rate of reduction in moisture” value amounted to 5.0%.

`C[N+](C)(C)CCO.O=C([O-])CO` [Compound C28]: in series [1], the “Water retention property test 1 Pre-test moisture rate” value turned out to be 20.0%, the “Water retention property test 1 Post-test moisture rate” value is given as 19.4% and the “Water retention property test 1 Rate of reduction in moisture” value was 3.0%.

For `C[N+](C)(C)CCO.O=C([O-])C=CC(=O)O` [Compound C30], in series [1], the “Water retention property test 1 Pre-test moisture rate” value worked out at 20.0%, the “Water retention property test 1 Post-test moisture rate” value amounted to 19.0% and the “Water retention property test 1 Rate of reduction in moisture” value stood at 5.5%.

On to `C[N+](C)(C)CCO.O=C([O-])CO` [Working example C89], for which, in series [2], the Pre-test moisture rate is 9.1%, the Post-test moisture rate came out at 8.9% and the “Rate of reduction in moisture” value is reported as 2.6%.

On to `CC(O)C(=O)[O-].C[N+](C)(C)CCO` [Working example C90], for which, in series [2], the Pre-test moisture rate was 8.5%, the Post-test moisture rate is listed as 8.1% and the “Rate of reduction in moisture” value came to 4.9%.

As for `C[N+](C)(C)CCO.O=C([O-])C=CC(=O)O` [Working example C91], in series [2], the Pre-test moisture rate was found to be 7.6%, the Post-test moisture rate stood at 7.2% and the “Rate of reduction in moisture” value was found to be 5.0%.

With `C[N+](C)(C)CCO.O=C([O-])CCC(=O)O` [Working example C92], in series [2], the Pre-test moisture rate came out at 7.5%, the Post-test moisture rate was 7.1% and the “Rate of reduction in moisture” value amounted to 5.0%.

In the case of `CS(=O)(=O)[O-].C[N+](C)(C)CCO` [Working example C93], in series [2], the Pre-test moisture rate is given as 8.3%, the Post-test moisture rate is 8.1% and the “Rate of reduction in moisture” value was found to be 2.0%.

Consider `C[N+](C)(C)CCO.O=P([O-])(O)O` [Working example C94], for which, in series [2], the Pre-test moisture rate is recorded as 8.2%, the Post-test moisture rate is recorded as 8.0% and the “Rate of reduction in moisture” value came out at 2.8%.

In the case of `C[N+](C)(C)CCO.O=[PH2][O-]` [Working example C95], in series [2], the Pre-test moisture rate is recorded as 9.6%, the Post-test moisture rate worked out at 9.3% and the “Rate of reduction in moisture” value is 2.9%.

With `C[N+](C)(C)CCO.[Cl-]` [Working example C96], in series [2], the Pre-test moisture rate is recorded as 11.4%, the Post-test moisture rate was found to be 10.7% and the “Rate of reduction in moisture” value came out at 6.0%.

As for `CC[N+](C)(C)CCO.CS(=O)(=O)[O-]` [Working example C97], in series [2], the Pre-test moisture rate was determined as 7.8%, the Post-test moisture rate was 7.7% and the “Rate of reduction in moisture” value stood at 1.9%.

Take `C[N+](C)(CCO)CC(O)CO.[Cl-]` (stereo not drawn) [Working example C98]: in series [2], the Pre-test moisture rate is 15.3%, the Post-test moisture rate is reported as 14.0% and the “Rate of reduction in moisture” value came to 8.7%.

For the molecule `C[N+](C)(CCO)CC(O)C[N+](C)(C)CCO.[Cl-].[Cl-]` [Working example C99], in series [2], the Pre-test moisture rate was determined as 10.5%, the Post-test moisture rate is given as 9.4% and the “Rate of reduction in moisture” value is on record as 10.2%.

Take `CC(O)C(=O)[O-].CCCC[N+](CCCC)(CCCC)CCCC` [Working example C100]: in series [2], the Pre-test moisture rate is reported as 5.2%, the Post-test moisture rate worked out at 4.9% and the “Rate of reduction in moisture” value is 6.4%.

For `CC(O)C(=O)[O-].CCCC[N+](CCCC)(CCCC)CCCC` [Working example C102], in series [2], the Pre-test moisture rate is recorded as 14.0%, the Post-test moisture rate amounted to 12.3% and the “Rate of reduction in moisture” value came to 12.0%.

On to `NCCO.O=C1O[C@H]([C@@H](O)CO)C(O)=C1O` [Working example C103], for which, in series [2], the Pre-test moisture rate is reported as 13.2%, the Post-test moisture rate is 13.0% and the “Rate of reduction in moisture” value amounted to 1.5%.

Regarding `CCC(N)(CO)CO.O=C1O[C@H]([C@@H](O)CO)C(O)=C1O` [Working example C107], in series [2], the Pre-test moisture rate was determined as 10.9%, the Post-test moisture rate is on record as 10.6% and the “Rate of reduction in moisture” value is given as 2.8%.

Regarding `NC(CO)(CO)CO.O=C1OC(C(O)CO)C(O)=C1O` (stereo not drawn) [Working example C108], in series [2], the Pre-test moisture rate worked out at 10.8%, the Post-test moisture rate was found to be 10.5% and the “Rate of reduction in moisture” value is reported as 2.8%.

With `NCC(O)C(O)C(O)C(O)CO.O=C1OC(C(O)CO)C(O)=C1O` (stereo not drawn) [Working example C109], in series [2], the Pre-test moisture rate is given as 9.2%, the Post-test moisture rate stood at 9.1% and the “Rate of reduction in moisture” value came to 1.1%.

`C[N+](C)(C)CCO.O=C1OC(C(O)CO)C([O-])=C1O` (stereo not drawn) [Working example C110]: in series [2], the Pre-test moisture rate is on record as 11.4%, the Post-test moisture rate came out at 11.2% and the “Rate of reduction in moisture” value is listed as 1.8%.

Take `C[N+](C)(C)CC(O)CC(=O)O.O=C1O[C@H]([C@@H](O)CO)C([O-])=C1O` [Working example C111]: in series [2], the Pre-test moisture rate is recorded as 9.7%, the Post-test moisture rate was 9.6% and the “Rate of reduction in moisture” value is 1.0%.

Turning to `CC(=O)OCC[N+](C)(C)C.O=C1O[C@H]([C@@H](O)CO)C([O-])=C1O` [Working example C112], in series [2], the Pre-test moisture rate worked out at 10.1%, the Post-test moisture rate stood at 9.9% and the “Rate of reduction in moisture” value is reported as 2.0%.

In the case of `CC(C)(N)CO.CC(O)C(=O)O` [Working example C113], in series [2], the Pre-test moisture rate is listed as 16.7%, the Post-test moisture rate came out at 16.3% and the “Rate of reduction in moisture” value worked out at 2.5%.

As for `CC(N)(CO)CO.CC(O)C(=O)O` [Working example C114], in series [2], the Pre-test moisture rate is 15.6%, the Post-test moisture rate was found to be 15.2% and the “Rate of reduction in moisture” value is 2.8%.

For `CC(C)(N)CO.O=C1OC(C(O)CO)C(O)=C1O` (stereo not drawn) [Working example C115], in series [2], the Pre-test moisture rate is recorded as 12.0%, the Post-test moisture rate turned out to be 11.7% and the “Rate of reduction in moisture” value is recorded as 2.9%.

For `CC(N)(CO)CO.O=C1O[C@H]([C@@H](O)CO)C(O)=C1O` [Working example C116], in series [2], the Pre-test moisture rate was found to be 11.4%, the Post-test moisture rate was found to be 11.1% and the “Rate of reduction in moisture” value was 2.9%.
